Earlier results as cited in US20110251243A1, “Method and Kit for Assessing a Patient's Genetic Information, Lifestyle and Environment Conditions, and Providing a Tailored Therapeutic Regime” (priority 2005, published 2011).
Read-outs that look alike come from different tables or passages of the source.

What was measured:
smokers = settings: women with at least one Taq1A allele compared to women with both common alleles
[1] = in the majority of people

In the case of CCc1c2c(nc3ccc(OC(=O)N4CCC(N5CCCCC5)CC4)cc13)-c1cc3c(c(=O)n1C2)COC(=O)[C@]3(O)CC [Irinotecan], the chance of neutropenia (patients; heterozygotes (6/7)) is given as 12.5%, the likelihood of neutropenia (patients; homozygous 7/7 genotype in UGT1A1*28) is given as 50% and the fatality (patients; in vivo) is given as “up to 5%”. The “severe diarrhoea and neutropenia, share of patients” value (patients; in vivo) was 20-35% and the chance of neutropenia (patients; wild type (homozygous 6/6 genotype)) was “roughly 0%”.

In the case of CC(NC(C)(C)C)C(=O)c1cccc(Cl)c1 (stereo not shown) [bupropion], the “smoking status at 12 months” value (smokers) is listed as “more likely to be still smoking”.

In the case of CN1CCCC1c1cccnc1 (stereo not shown) [nicotine], the “share metabolized to cotinine by C-oxidation” value [1] is listed as 70% to 80.
